What was measured:
UUO mice = settings: background statement; cited from earlier work
kidney cell-line model = settings: background statement; cited from earlier work
[1] = tested on: thapsigargin (Tg)-induced Ca^2+ entry (SOCE) in Jurkat, U937, Luva, RBL-2H3, HL-60 and HEK-293 cells; assay: Thapsigargin-induced SOCE Fura-2 bioassay in various cell types (FIG. 1); type: cell-based; settings: 1 μM, positive control, all tested cell types
Method: A Fura-2 calcium flux assay was used to determine cytoplasmic Ca^2+ levels. Briefly, cells were preloaded with Fura-2 AM, and fluorescence intensity in cells intensity was measured over time as a ratio of detected 510 nm fluorescent light emission intensity when excited by UV light at 340 nm and 380 nm wavelengths (f340/f380 ratio). Gadolinium (Gd^3+) is known to block SOCE at a concentration of 1 μM and was used at 1 μM as a positive control in these experiments (gray line).

| Compound | progression of kidney damage and fibrosis in the UUO mouse model (UUO mice) | cell proliferation in a kidney cell-line model (kidney cell-line model) | effect on Tg-induced SOCE (f340/f380 ratio) [1] |
| --- | --- | --- | --- |
| c1ccc2c(c1)CCC[C@H]2Nc1nc2ccccc2[nH]1 [NS8593] | ameliorates the progression of kidney damage and fibrosis | inhibit cell proliferation |  |
| [Cl][Gd]([Cl])[Cl] [Gd^3+, Gadolinium Chloride] |  |  | inhibited SOCE |

— US20230091336A1, “CANNABINOID COMPOSITIONS” (priority 2020, published 2023)
